This is an account of results in PubChem BioAssay (NCI).

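Five concentrations, 48 hours, 96-well plates. TGI: total growth inhibition.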

Assay in all cases: DTP human tumour cell line panel, 48 h
Experiment [1] has as its system KM12 colon.
Experiment [2] relates to IGROV1 ovarian.
The subject of experiment [3] is OVCAR-5 ovarian.
Experiment [4] has as its system HCC-2998 colon.
In experiment [5] the test system is SNB-75 CNS.
In experiment [6] the test system is OVCAR-3 ovarian.
For experiment [7], the system named is SK-MEL-5 melanoma.
Experiment [8] relates to 786-0 renal.
Experiment [9] relates to SK-OV-3 ovarian.

As for `CN1c2ccccc2N(C(=O)c2ccc([N+](=O)[O-])cc2)C(CC(=O)O)c2cccn21` (centres undefined), the TGI in [1], in experiment [2], in experiment [3], in experiment [4], in [5] and in experiment [6] was greater than 100 µM in each case. Also, the TGI in experiment [7], in experiment [8] and in experiment [9] was greater than 100 µM throughout.

Take `Cn1c2c(c3ccccc31)CCN(CCCCN1CCCCC1)C2=O`: the TGI in experiment [2], in experiment [3], in experiment [6], in experiment [7], in [8] and in experiment [9] was greater than 100 µM each time.

`O=C(/C=C/c1cc(Cl)cc(Cl)c1O)c1cccc(O)c1`: the TGI was greater than 100 µM in experiment [1]; greater than 100 µM in experiment [2]; 28.3 µM in experiment [3]; greater than 100 µM in [4]; 94.4 µM in experiment [5]; greater than 100 µM in experiment [6]. Besides, the TGI in experiment [7], in [8] and in [9] was greater than 100 µM each time.

In the case of `O=C(NCCCCCCCCCCCCNC(=O)c1cccc2ccccc12)c1cccc2ccccc12`, the TGI in experiment [1] was greater than 100 µM; in [2], greater than 100 µM; in [3] it was greater than 100 µM; in experiment [4] it was greater than 100 µM; in [5], greater than 54.6 µM; in [6], greater than 67.6 µM. Besides, the results for the TGI in [7], in [8] and in experiment [9] were greater than 100 µM, greater than 71.7 µM and greater than 66.8 µM, respectively.

For `Cc1c(Cl)cccc1NC(=O)C(=O)C(C(=O)c1ccccc1-c1ccccc1)C1OC(=O)c2ccccc21` (centres undefined), the TGI is 39.4 µM in experiment [1]; greater than 100 µM in experiment [2]; 46.9 µM in experiment [3]; 31.2 µM in [4]; 42.1 µM in experiment [5]; 33.8 µM in [6]. For the same compound, the figures for the TGI in experiment [7], in [8] and in experiment [9] were 29.9 µM, 33.3 µM and greater than 100 µM, respectively.

Take `COC(=O)CCC(NC(=S)N/N=C(\C)c1cnc2ccccc2n1)C(=O)OC` (centres undefined): the TGI in [1] was 80.4 µM; in experiment [2], greater than 100 µM; in [3], 63.4 µM; in experiment [4], greater than 100 µM; in experiment [5] it was greater than 100 µM; in experiment [6], greater than 100 µM. The TGI in experiment [7] is 80.7 µM; in experiment [8] it was greater than 100 µM; in [9], greater than 100 µM.

On to `CN1C(=O)CCC1(O)C1C=CC=CC1` (centres undefined), for which the TGI in experiment [1], in [2], in [3], in [4], in experiment [5] and in [6] was greater than 100 µM in each case. For the same compound, the TGI in experiment [7], in [8] and in experiment [9] was greater than 100 µM each time.

In the case of `COC(=O)C(C(=O)C(=O)Nc1c(C)cccc1C)c1cnc2ccccc2n1` (centres undefined), the total growth inhibition concentration (TGI) in experiment [1], in [2], in experiment [3], in [4], in experiment [5] and in [7] was greater than 100 µM each time. The TGI in [8] and in [9] was greater than 100 µM each time.

As for `CN(C)C=Nc1ccn(CCO)c(=O)n1`, the TGI in [1], in experiment [2], in [3], in experiment [4], in [5] and in [6] was greater than 100 µM in each case. In addition, the TGI in experiment [7], in [8] and in experiment [9] was greater than 100 µM in each case.

As for `Cc1cc(NCCCCCCCCNc2cc(C)nc3cc(N)ccc23)c2ccc(N)cc2n1`, the TGI is 37.8 µM in [1]; greater than 100 µM in [3]; 38.8 µM in [4]; 69.1 µM in experiment [5]; 37.4 µM in experiment [6]; 34.8 µM in [7]. The concentration for total growth inhibition (TGI) in experiment [8] was 53.7 µM; in experiment [9], greater than 100 µM.

With `CC(=O)OCC1OC(n2cc(F)c(=O)[nH]c2=O)C(NC(=O)N(CCCl)N=O)C(OC(C)=O)C1OC(C)=O` (centres undefined), the TGI in experiment [1] was greater than 100 µM; in experiment [2], greater than 100 µM; in experiment [5], 78.3 µM; in [6], greater than 100 µM; in experiment [7], greater than 100 µM; in experiment [8], greater than 100 µM. Further, the total growth inhibition concentration (TGI) in [9] is greater than 100 µM.

`C/C(=C1/N=C(c2cc([N+](=O)[O-])ccc2Cl)N(c2cccc(C)c2)C1=O)c1cc2ccccc2oc1=O`: the TGI in experiment [1], in [2], in experiment [3], in experiment [4], in experiment [5] and in [6] was greater than 100 µM in each case. The results for the TGI in [7], in [8] and in experiment [9] were 53.8 µM, greater than 100 µM and greater than 100 µM, respectively.

`N#CCCN(c1ccc(C=Nc2ccccc2)cc1)S(=O)(=O)c1ccccc1`: the TGI in experiment [1], in experiment [2], in [4], in experiment [5], in experiment [6] and in experiment [7] was greater than 100 µM each time. In addition, the TGI in experiment [8] and in experiment [9] was greater than 100 µM throughout.

Turning to `C[C@@H](NC1CCCC[C@H]1O)c1ccccc1` (some centres undefined), the TGI in experiment [1], in experiment [2], in experiment [4], in experiment [5], in experiment [6] and in [7] was greater than 100 µM each time. For the same compound, the TGI in [8] and in experiment [9] was greater than 100 µM throughout.

As to `CCC(C)CCOC(=O)c1ccc(N=Cc2ccc(C=Nc3ccc(C(=O)OCCC(C)CC)cc3)cc2)cc1` (centres undefined), the TGI in experiment [2], in experiment [3], in experiment [4], in experiment [5], in experiment [6] and in experiment [7] was greater than 100 µM in each case. For the same compound, the TGI in [8] and in experiment [9] was greater than 100 µM each time.

Turning to `Cc1nc(-n2nc(-c3ccccc3)cc2-c2ccccc2)sc1C(=O)/C=C/c1ccc(/C=C/C(=O)c2sc(-n3nc(-c4ccccc4)cc3-c3ccccc3)nc2C)cc1`, the TGI came to 35.8 µM in experiment [1]; 28.6 µM in [2]; 57.5 µM in [3]; 39.3 µM in experiment [4]; 59.3 µM in experiment [6]; 33.4 µM in [8]. For the same compound, the TGI in experiment [9] is greater than 100 µM.

On to `Nc1ncnc2c1ncn2[C@]1(CO)C=C(CO)C(O)C1O` (some centres undefined), for which the TGI in experiment [1], in experiment [3], in experiment [4], in experiment [5], in experiment [7] and in [8] was greater than 100 µM throughout. In experiment [9], the TGI was greater than 100 µM.

Regarding `Cc1cn(C2CC(O)C(COC(=O)c3ccccc3)O2)c(=O)[nH]c1=O` (centres undefined), the TGI in [1], in [2], in experiment [3], in experiment [4], in experiment [6] and in [7] was greater than 100 µM in each case. Moreover, in [8], the TGI was greater than 100 µM.

Consider `Cc1ccc(S(=O)(=O)OCCn2cnc3nc(NC(=O)c4ccccc4)[nH]c(=O)c32)cc1`, for which the TGI in [1], in experiment [2], in experiment [3], in experiment [5], in experiment [6] and in experiment [7] was greater than 100 µM throughout. Further, the TGI in [8] and in experiment [9] was greater than 100 µM in each case.

Regarding `COc1ccc(C/C(=N/O)C(=O)NCCc2cc(Br)c(OCCCN(C)C)c(Br)c2)cc1Br`, the TGI in experiment [1] is 34.9 µM; in [3] it was 49.2 µM; in experiment [4] it was 28.5 µM; in experiment [5], 55 µM; in [6] it was 40.4 µM; in [8], 48.1 µM.

For the compound `O=C(N/C(=C\c1ccc(Cl)cc1)c1nc2ccccc2[nH]1)c1ccccc1`, the TGI in [1] came out at 33.6 µM; in [2], 60 µM; in [3], 85 µM; in experiment [5], 47.2 µM; in [6], 49 µM; in [7], 35.3 µM. Also, the TGI was 43.9 µM in [8] and 79.4 µM in [9].

Take `CCCCCN(CCCCC)C(=O)[C@@H](CCC(=O)O)NC(=O)c1cc2ccccc2[nH]1`: the TGI in experiment [1] is greater than 100 µM; in experiment [2] it was greater than 100 µM; in experiment [3], greater than 100 µM; in [4], greater than 100 µM; in experiment [5], 61.8 µM; in experiment [6], greater than 100 µM. The TGI in experiment [8] and in [9] was greater than 100 µM in each case.

Take `Cn1cc(C(=O)c2ccccc2)c2ccccc2c1=O`: the TGI in experiment [1], in experiment [2], in [4], in [5], in [6] and in experiment [7] was greater than 100 µM throughout. Moreover, the TGI in [8] and in experiment [9] was greater than 100 µM in each case.

What is called TGI is the concentration at which net growth stops. Read a low TGI as greater sensitivity of the cells.
